Measured values reported in US10272056B2, “Treatment for mitochondrial diseases” (The George Washington University a Congressionally …, priority 2015, dated 2019).

Experiments:
[1] = system: ependymal cells of the choroid plexus; assay: In vivo mitochondrial mass of choroid plexus (SOD2 immunohistochemistry); set-up: species or system mice; details: NaBt intraperitoneally in E12.5 pregnant dams, brains at E17.5, vs sham
Description: FIG. 8 is a schematic and image from microscopy showing that NaBt increases in vivo the mitochondrial mass of ependymal cells of the choroid plexus.
NaBt increases in vivo the mitochondrial mass of ependymal cells of the choroid plexus. NaBt's effect on mitochondrial mass of ependymal cells from the choroid plexus was investigated. It is a highly vascularized tissue lining the brain ventricles, which is responsible for producing and secreting the cerebral spinal fluid (CSF) and for supplying growth factors and key ions to the developing and mature brain ([…]). The secretory functions of the ependymal cells are highly dependent of mitochondria to ensure active transports of small ions, water and growth factors from the blood side to the CSF side. Impairment of mitochondrial functions in the choroid plexus has been documented in neurodegenerative diseases, such as Alzheimer's disease. To test the effect of NaBt in the choroid plexus of the murine developing brain, NaBt was injected intraperitoneally in E12.5 pregnant dams before dissected the brains at E17.5. Immunohistochemistry was performed on E17.5 sectioned brains to analyze the mitochondrial mass using an antibody against the mitochondrial marker SOD2.

NRF-1 = assay: Quantitative immunoblot analysis of NRF-1; format: cell-based; details: NaBt treatment, PC12-ND6
Description: FIG. 11A-11D are images from microscopy and graphs showing NaBt promotes mtDNA replication via the NRF-1/Tfam axis. (A) Confocal analysis of mtDNA foci; scale bar=5 (B) Quantitative analysis of mtDNA copy number by PCR; *p<0.001. (C, D) Quantitative immunoblot analysis of NRF-1 and Tfam; *p<0.001.
NaBt enhances mtDNA replication via the PGC1α-mediated NRF-1/Tfam axis. It was investigated whether NaBt enhanced mtDNA replication using the PicoGreen® dye to label mtDNA. PC12-ND6 cells were transfected with the mito-dsRed vector prior to NaBt treatment followed by PicoGreen® staining. […] To corroborate enhanced mitochondrial biogenesis, two key target genes of PGC1α were examined, the NRF-1 transcription factor and its direct target gene Tfam, both essential for mitochondrial biogenesis. […] The findings confirm the NaBt-mediated modulation of mitochondrial biogenesis and mtDNA replication in neuronal cells.

PC12-ND6 cells [2] = assay: Neurite outgrowth with dbcAMP; format: cell-based
Procedure: FIG. 13A-13E are images from microscopy and graphs showing that the timing of NaBt treatment is critical for enhancing neuronal differentiation of PC12-ND6 cells upon sub-optimal neurotrophic cues. (A) Confocal micrographs of PC12-ND6 cells treated with dbcAMP alone or with NaBt (5 mM) in a simultaneous or sequential manner. Scale bar represents 5 μm. (B) Graph of neurite length. Mean±SEM (n=50 for each condition; compared to control (no NaBt) *p=0.0001 and **p=0.0009). (C) Confocal micrographs of PC12-ND6 cells treated with sub-optimal NGF concentration (10 ng/ml) alone or first NaBt (5 mM) in a simultaneous or sequential manner. Scale bar represents 10 μm. (D) Graph of average total neurite length. Mean±SEM (n=50 for each condition; compared to control *p=0.0001). (E) Graph of the frequency of total neurite length below and above 90 μm.
The timing of NaBt pre-treatment is critical for enhancing neuronal differentiation of PC12-ND6 cells and potentiating sub-optimal neurotrophic cues. We next investigated whether NaBt-mediated increase of mitochondrial biogenesis could potentiate subsequent sub-optimal neurotrophic cues to trigger effective neurite outgrowth in PC12-ND6 cells and whether a temporal window for NaBt responsiveness might exist. […]

PC12-ND6 cells [3] = assay: Mitochondrial mass under chloramphenicol (mito-GFP live-cell confocal microscopy); format: cell-based; details: NaBt prior to chloramphenicol, up to highest concentration
Description: FIG. 14A-14E are images from microscopy showing that pre-treatment of PC12-ND6 cells with NaBt prevents chloramphenicol-mediated decrease of mitochondrial mass. (A) Graph of PC12-ND6 cell death upon exposure to different concentrations of chloramphenicol (Cm). Percent of cell death±SEM (n=250 cells). (B) Quantitative immunoblot analysis of mitochondrial-encoded MT-CO1 protein (green) and nuclear-encoded SDH-A protein (red) in Cm-treated PC12-ND6 cells. (C) Graph of MT-CO1/SDH-A ratio normalized to untreated PC12-ND6 cells. Mean±SEM (n=3; compared to untreated cells *p=0.0052, **p=0.0048, and ***p=0.0034). (D) Confocal micrographs of untreated and Cm-treated PC12-ND6 cells transfected with the vector mito-GFP. Scale bar represents 5 μm. (E) Confocal micrographs of NaBt pre-treated PC12-ND6 cells transfected with the vector mito-GFP and exposed to Cm. Scale bar represents 5 μm.
The efficacy of chloramphenicol treatment was determined by simultaneously examining the expression levels of the nuclear-encoded succinate dehydrogenase (SDH-A) subunit of Complex II and the mitochondrial-encoded subunit I of Complex IV (MT-COI) using a quantitative immunoblot approach. […] The effect of chloramphenicol on mitochondrial mass by live-cell confocal microscopy using PC12-ND6 cells transfected with the vector mito-GFP was confirmed.

MELAS fibroblasts = assay: Affymetrix genome-wide microarray analysis; format: cell-based, human
Description: An embodiment of the novel pharmacological approach described herein uses butyrates to promote nuclear and mitochondrial metabolic reprogramming by boosting mitochondrial biogenesis and maximizing residual ATP output. […] Thus, the data validate a pharmaco-epigenomic approach and establish proof-of-principle. It was hypothesized that butyrates can augment the functional mitochondrial mass in skin fibroblasts from 20 MELAS patients. Fibroblasts from this number of patients, each with different nuclear backgrounds and heteroplasmic loads, will ensure the findings extend beyond a case study into a statistically sound and broadly applicable report. It will be tested whether butyrates: (Aim 1) induce favorable mitochondrial biogenesis, thereby shifting heteroplasmy toward healthy mitochondria; and (Aim 2) maximize ATP output via optimization of OXPHOS activity and a metabolic shift toward fatty acid beta oxidation. It is anticipated to identify the most promising butyrate candidate for alleviating the symptoms of the MELAS disease. The proposed study will set the stage for future clinical studies with the Children's National Medical Center and the North American Mitochondrial Disease Consortium, in concordance with the PAR-13-023 issued by the NINDS Office of Translational Research for R21 exploratory projects.

## CCCC(=O)[O-].[Na+] [NaBt, sodium butyrate]
[1]
  mitochondrial mass of ependymal cells of the choroid plexus: substantial increase
NRF-1
  NRF-1 expression: increased on day 1
PC12-ND6 cells [2]; NaBt 5 mM and dbcAMP 1 mM added together
  neuritogenesis upon co-addition: severely dampened
PC12-ND6 cells [2]; NaBt pre-treatment three days at highest dose, then dbcAMP 1 mM 24 hours
  neurite length: 50 μm
PC12-ND6 cells [3]
  mitochondrial biomass with NaBt pre-treatment: sustain their mitochondrial biomass
MELAS fibroblasts; 30 genes, p<0.05
  increased expression of OXPHOS genes: ≥ 1.5 fold
MELAS fibroblasts; NaBt
  nuclear genes significantly regulated: 5%
  off-target effects: limited off-target effects
MELAS fibroblasts; NaBt-treated
  expression of nuclear genes involved in mitochondrial morphology and fusion-fission events: increased expression levels
  genes known to promote FAO: ten upregulated genes
MELAS fibroblasts; subunits of complexes II, III, IV, V, p<0.05
  number of OXPHOS genes with increased expression: 30
